Measurements published in PubChem BioAssay AID2060509 (Molecular Pharmacology Branch, DTP, NCI, 2025).

Tested on: 485176-168-R4-J1-PDC spheroids with HUVEC/MSC, viability
Assay: Anticancer human tumor 485176-168-R4-J1-PDC patient-derived pancreatic adenocarcinoma cell line growth inhibition [GQUAD]
Settings: for IC50: curve of first compound; for viability, T/C: stronger effect = lower value
In short: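 Viability of tumor cells grown as complex spheroids with endothelial and stromal cells, exposed to drug combinations. Top concentration at or near clinical Cmax (else 10 microM), diluted in half-log increments.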

[1] = second compound 0.0316 µM, first compound 0.0316 µM
[2] = second compound 0.0316 µM, first compound 0.1 µM
[3] = second compound 0.0316 µM, first compound 0.316 µM
[4] = second compound 0.0316 µM, first compound 1 µM
[5] = second compound 0.0316 µM, first compound 3.16 µM
[6] = second compound 0.0316 µM, first compound 10 µM
[7] = second compound 0.1 µM, first compound 0.0316 µM
[8] = second compound 0.1 µM, first compound 0.1 µM
[9] = second compound 0.1 µM, first compound 0.316 µM
[10] = second compound 0.1 µM, first compound 1 µM
[11] = second compound 0.1 µM, first compound 3.16 µM
[12] = second compound 0.1 µM, first compound 10 µM
[13] = second compound 0.316 µM, first compound 0.0316 µM
[14] = second compound 0.316 µM, first compound 0.1 µM
[15] = second compound 0.316 µM, first compound 0.316 µM
[16] = second compound 0.316 µM, first compound 1 µM
[17] = second compound 0.316 µM, first compound 3.16 µM
[18] = second compound 0.316 µM, first compound 10 µM
[19] = second compound 1 µM, first compound 0.0316 µM
[20] = second compound 1 µM, first compound 0.1 µM
[21] = second compound 1 µM, first compound 0.316 µM
[22] = second compound 1 µM, first compound 1 µM
[23] = second compound 1 µM, first compound 3.16 µM
[24] = second compound 1 µM, first compound 10 µM
[25] = second compound 3.16 µM, first compound 0.0316 µM
[26] = second compound 3.16 µM, first compound 0.1 µM
[27] = second compound 3.16 µM, first compound 0.316 µM
[28] = second compound 3.16 µM, first compound 1 µM
[29] = second compound 3.16 µM, first compound 3.16 µM
[30] = second compound 3.16 µM, first compound 10 µM
[31] = second compound 10 µM, first compound 0.0316 µM
[32] = second compound 10 µM, first compound 0.1 µM
[33] = second compound 10 µM, first compound 0.316 µM
[34] = second compound 10 µM, first compound 1 µM
[35] = second compound 10 µM, first compound 3.16 µM
[36] = second compound 10 µM, first compound 10 µM
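Also: spheroids exposed to compounds for seven days before readout.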
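For viability, T/C in this document: percent viability relative to DMSO vehicle control wells as 100%.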

## CC(C)n1c(=O)n(C)c2cnc3cc(F)c(-c4ccc(OCCCN5CCCCC5)nc4)cc3c21 + CN(C)c1ccc(Nc2c3ccc(NC(=O)CCN4CCCC4)cc3nc3cc(NC(=O)CCN4CCCC4)ccc23)cc1
Second compound 0.0316 µM
  IC50: > 10000 nM
Second compound 0.1 µM
  IC50: > 10000 nM
Second compound 0.316 µM
  IC50: > 10000 nM
Second compound 1 µM
  IC50: > 10000 nM
Second compound 3.16 µM
  IC50: > 10000 nM
Second compound 10 µM
  IC50: 5420 nM
[1]
  viability, T/C: 89.8%
[2]
  viability, T/C: 81.3%
[3]
  viability, T/C: 104%
[4]
  viability, T/C: 89.7%
[5]
  viability, T/C: 93.3%
[6]
  viability, T/C: 71.7%
[7]
  viability, T/C: 92.7%
[8]
  viability, T/C: 91.1%
[9]
  viability, T/C: 104%
[10]
  viability, T/C: 95.7%
[11]
  viability, T/C: 94.7%
[12]
  viability, T/C: 68.4%
[13]
  viability, T/C: 111%
[14]
  viability, T/C: 90.4%
[15]
  viability, T/C: 94.7%
[16]
  viability, T/C: 98.2%
[17]
  viability, T/C: 94.5%
[18]
  viability, T/C: 82.1%
[19]
  viability, T/C: 111%
[20]
  viability, T/C: 95.9%
[21]
  viability, T/C: 80.6%
[22]
  viability, T/C: 79.7%
[23]
  viability, T/C: 71.2%
[24]
  viability, T/C: 77.8%
[25]
  viability, T/C: 81.6%
[26]
  viability, T/C: 91.7%
[27]
  viability, T/C: 86.6%
[28]
  viability, T/C: 85.2%
[29]
  viability, T/C: 79.1%
[30]
  viability, T/C: 59.9%
[31]
  viability, T/C: 81.7%
[32]
  viability, T/C: 65.7%
[33]
  viability, T/C: 71.5%
[34]
  viability, T/C: 64.5%
[35]
  viability, T/C: 64.6%
[36]
  viability, T/C: 36.3%

## CC1COCCN1c1cc(-c2ccnn2C)c2ccnc(-c3ccn[nH]3)c2n1 (stereo not drawn) + Cc1cnc(CNC(=O)c2c(=O)c3ccc(N4CCCN(C)CC4)nc3n3c2sc2ccccc23)cn1
Second compound 0.0316 µM
  IC50: < 31.6 nM
Second compound 0.1 µM
  IC50: < 31.6 nM
Second compound 0.316 µM
  IC50: < 31.6 nM
Second compound 1 µM
  IC50: < 31.6 nM
Second compound 3.16 µM
  IC50: < 31.6 nM
Second compound 10 µM
  IC50: < 31.6 nM
[1]
  viability, T/C: 40.6%
[2]
  viability, T/C: 15.9%
[3]
  viability, T/C: 12.9%
[4]
  viability, T/C: 8.3%
[5]
  viability, T/C: 10.7%
[6]
  viability, T/C: 11.9%
[7]
  viability, T/C: 22.2%
[8]
  viability, T/C: 12.2%
[9]
  viability, T/C: 7.9%
[10]
  viability, T/C: 11.2%
[11]
  viability, T/C: 10.8%
[12]
  viability, T/C: 11.7%
[13]
  viability, T/C: 18.2%
[14]
  viability, T/C: 9.35%
[15]
  viability, T/C: 8.47%
[16]
  viability, T/C: 7.9%
[17]
  viability, T/C: 10.6%
[18]
  viability, T/C: 10.4%
[19]
  viability, T/C: 12.6%
[20]
  viability, T/C: 9.48%
[21]
  viability, T/C: 9.86%
[22]
  viability, T/C: 8.6%
[23]
  viability, T/C: 11.5%
[24]
  viability, T/C: 10.6%
[25]
  viability, T/C: 15%
[26]
  viability, T/C: 11.8%
[27]
  viability, T/C: 10.1%
[28]
  viability, T/C: 10.4%
[29]
  viability, T/C: 9.56%
[30]
  viability, T/C: 9.96%
[31]
  viability, T/C: 16%
[32]
  viability, T/C: 11%
[33]
  viability, T/C: 9.84%
[34]
  viability, T/C: 9.05%
[35]
  viability, T/C: 9.12%
[36]
  viability, T/C: 10.4%

## O=C(NO)c1cnc(N2CCN(S(=O)(=O)c3ccc4ccccc4c3)CC2)nc1 + Cc1cnc(CNC(=O)c2c(=O)c3ccc(N4CCCN(C)CC4)nc3n3c2sc2ccccc23)cn1
Second compound 0.0316 µM
  IC50: 322 nM
Second compound 0.1 µM
  IC50: 185 nM
Second compound 0.316 µM
  IC50: 132 nM
Second compound 1 µM
  IC50: < 31.6 nM
Second compound 3.16 µM
  IC50: < 31.6 nM
Second compound 10 µM
  IC50: < 31.6 nM
[1]
  viability, T/C: 81%
[2]
  viability, T/C: 62.6%
[3]
  viability, T/C: 53.3%
[4]
  viability, T/C: 8.83%
[5]
  viability, T/C: 0.53%
[6]
  viability, T/C: 0.27%
[7]
  viability, T/C: 66.3%
[8]
  viability, T/C: 57.2%
[9]
  viability, T/C: 42%
[10]
  viability, T/C: 8.37%
[11]
  viability, T/C: 0.28%
[12]
  viability, T/C: 1.03%
[13]
  viability, T/C: 59.1%
[14]
  viability, T/C: 51.5%
[15]
  viability, T/C: 35.7%
[16]
  viability, T/C: 2.63%
[17]
  viability, T/C: 0.22%
[18]
  viability, T/C: 0.44%
[19]
  viability, T/C: 39.8%
[20]
  viability, T/C: 44.7%
[21]
  viability, T/C: 23.2%
[22]
  viability, T/C: 0.9%
[23]
  viability, T/C: 1.33%
[24]
  viability, T/C: 0.81%
[25]
  viability, T/C: 45.5%
[26]
  viability, T/C: 41.9%
[27]
  viability, T/C: 18.6%
[28]
  viability, T/C: 0.3%
[29]
  viability, T/C: 0.21%
[30]
  viability, T/C: 0.18%
[31]
  viability, T/C: 36.3%
[32]
  viability, T/C: 33.3%
[33]
  viability, T/C: 14.1%
[34]
  viability, T/C: 0.24%
[35]
  viability, T/C: 1.65%
[36]
  viability, T/C: 0.46%

## COc1cc(C2c3cc4c(cc3C(OC3OC5COC(C)OC5C(O)C3O)C3COC(=O)C23)OCO4)cc(OC)c1O (stereo not drawn) + Cc1cnc(CNC(=O)c2c(=O)c3ccc(N4CCCN(C)CC4)nc3n3c2sc2ccccc23)cn1
Second compound 0.0316 µM
  IC50: 322 nM
Second compound 0.1 µM
  IC50: 171 nM
Second compound 0.316 µM
  IC50: 123 nM
Second compound 1 µM
  IC50: < 31.6 nM
Second compound 3.16 µM
  IC50: < 31.6 nM
Second compound 10 µM
  IC50: < 31.6 nM
[1]
  viability, T/C: 87.9%
[2]
  viability, T/C: 63.1%
[3]
  viability, T/C: 49.7%
[4]
  viability, T/C: 38.1%
[5]
  viability, T/C: 21%
[6]
  viability, T/C: 8.67%
[7]
  viability, T/C: 65.4%
[8]
  viability, T/C: 55.4%
[9]
  viability, T/C: 40.6%
[10]
  viability, T/C: 36%
[11]
  viability, T/C: 22.3%
[12]
  viability, T/C: 8.6%
[13]
  viability, T/C: 55.6%
[14]
  viability, T/C: 53.6%
[15]
  viability, T/C: 38.2%
[16]
  viability, T/C: 41.3%
[17]
  viability, T/C: 24.3%
[18]
  viability, T/C: 8.95%
[19]
  viability, T/C: 56%
[20]
  viability, T/C: 41.8%
[21]
  viability, T/C: 47.4%
[22]
  viability, T/C: 41.5%
[23]
  viability, T/C: 18.4%
[24]
  viability, T/C: 9.08%
[25]
  viability, T/C: 49.9%
[26]
  viability, T/C: 33.8%
[27]
  viability, T/C: 35.7%
[28]
  viability, T/C: 34.8%
[29]
  viability, T/C: 22.8%
[30]
  viability, T/C: 8.98%
[31]
  viability, T/C: 42.4%
[32]
  viability, T/C: 38.9%
[33]
  viability, T/C: 39.1%
[34]
  viability, T/C: 33.3%
[35]
  viability, T/C: 18.1%
[36]
  viability, T/C: 3.75%
